Measured values published in US12404250B2, “PARP inhibitors for treating cancer and asthma” (Oregon Health & Science University, priority 2018, dated 2025).

Legend:
Format in all cases: biochemical
PARP7 = biological target: T1, PARP7 (Homo sapiens, UniProt Q7Z3E1); experiment: In vitro IC50, PARP7; details: SEM from a minimum of three dose-response experiments
T1 sequence (Q7Z3E1 1-657): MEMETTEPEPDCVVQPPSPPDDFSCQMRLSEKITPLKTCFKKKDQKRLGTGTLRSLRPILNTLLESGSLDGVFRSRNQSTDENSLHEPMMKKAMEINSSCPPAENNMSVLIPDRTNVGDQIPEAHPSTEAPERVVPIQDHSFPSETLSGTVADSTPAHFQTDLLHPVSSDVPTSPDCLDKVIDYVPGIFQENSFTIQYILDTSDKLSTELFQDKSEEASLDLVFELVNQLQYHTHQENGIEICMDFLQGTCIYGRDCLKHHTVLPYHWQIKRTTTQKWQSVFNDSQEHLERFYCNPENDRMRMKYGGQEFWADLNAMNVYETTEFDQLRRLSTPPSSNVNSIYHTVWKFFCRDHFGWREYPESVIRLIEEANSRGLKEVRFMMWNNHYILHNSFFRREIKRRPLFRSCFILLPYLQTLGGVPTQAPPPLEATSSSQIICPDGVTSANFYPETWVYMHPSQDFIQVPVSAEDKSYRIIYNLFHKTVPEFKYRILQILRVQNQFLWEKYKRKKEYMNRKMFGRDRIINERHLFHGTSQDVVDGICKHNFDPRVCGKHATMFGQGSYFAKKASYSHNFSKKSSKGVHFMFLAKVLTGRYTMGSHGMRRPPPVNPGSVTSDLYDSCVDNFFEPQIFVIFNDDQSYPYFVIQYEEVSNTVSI

PARP10cat = biological target: T2, PARP10cat (Homo sapiens, UniProt Q53GL7); experiment: In vitro IC50, PARP10cat; details: SEM from a minimum of three dose-response experiments
T2 construct: bcat; cat; PARP11
T2 sequence (Q53GL7 806-1025 limits assumed): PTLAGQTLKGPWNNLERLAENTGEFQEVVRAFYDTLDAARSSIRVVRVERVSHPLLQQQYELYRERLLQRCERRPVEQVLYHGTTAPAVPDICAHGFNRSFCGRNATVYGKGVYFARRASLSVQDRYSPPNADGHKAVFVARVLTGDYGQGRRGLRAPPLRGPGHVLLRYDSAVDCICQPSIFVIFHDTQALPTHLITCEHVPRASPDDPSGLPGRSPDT

PARP4 Brct-cat = biological target: T3, PARP4 Brct-cat (Homo sapiens, UniProt Q9UKK3); experiment: In vitro IC50, PARP4 Brct-cat; details: SEM from a minimum of three dose-response experiments
T3 construct: PARP4 Brct-cat
T3 sequence (Q9UKK3 1-573 limits assumed): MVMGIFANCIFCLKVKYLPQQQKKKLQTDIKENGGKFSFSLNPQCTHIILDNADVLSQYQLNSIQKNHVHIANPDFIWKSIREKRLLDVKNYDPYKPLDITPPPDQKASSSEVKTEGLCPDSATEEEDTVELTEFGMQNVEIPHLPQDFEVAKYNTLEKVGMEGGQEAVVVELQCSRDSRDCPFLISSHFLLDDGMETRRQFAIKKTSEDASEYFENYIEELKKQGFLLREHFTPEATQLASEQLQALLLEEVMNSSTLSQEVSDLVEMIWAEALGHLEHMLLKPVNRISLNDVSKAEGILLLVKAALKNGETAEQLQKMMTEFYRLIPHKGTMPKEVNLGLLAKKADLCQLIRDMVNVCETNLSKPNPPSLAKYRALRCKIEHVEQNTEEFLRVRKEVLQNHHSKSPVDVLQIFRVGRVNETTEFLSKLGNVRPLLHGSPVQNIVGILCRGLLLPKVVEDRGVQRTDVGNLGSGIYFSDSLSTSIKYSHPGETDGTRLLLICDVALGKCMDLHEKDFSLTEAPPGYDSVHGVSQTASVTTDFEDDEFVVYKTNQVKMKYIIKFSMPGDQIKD

PARP11 = biological target: T4, PARP11 (Homo sapiens, UniProt Q9NR21); experiment: In vitro IC50, PARP11 (plate assay, MARylation of SRPK2 and NXF1); details: SEM from a minimum of three dose-response experiments
T4 sequence (Q9NR21 1-338): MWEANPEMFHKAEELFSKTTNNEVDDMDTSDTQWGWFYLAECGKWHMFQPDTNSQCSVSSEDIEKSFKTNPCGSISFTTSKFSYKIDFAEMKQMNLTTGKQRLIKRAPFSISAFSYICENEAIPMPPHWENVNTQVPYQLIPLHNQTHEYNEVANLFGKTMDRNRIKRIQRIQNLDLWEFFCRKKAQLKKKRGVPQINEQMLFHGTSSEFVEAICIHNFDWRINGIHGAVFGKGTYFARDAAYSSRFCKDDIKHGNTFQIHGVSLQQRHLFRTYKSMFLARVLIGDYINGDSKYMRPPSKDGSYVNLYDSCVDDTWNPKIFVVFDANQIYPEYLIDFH
Text: Curves generated using Prism 7 (Graph Pad); error bars indicate ±SEM from at least two replicates.

PARP6 = biological target: T5, PARP6 (Homo sapiens, UniProt Q2NL67); experiment: In vitro IC50, immunoprecipitated GFP-PARP6 auto-MARylation
T5 construct: expressed in transfected cells; host or cells: HEK 293T
Description: (§1) Auto-MARylation was analyzed by Western blot with an ADP-ribose (ADPr) binding reagent (uncropped blots shown below).

PARP8 = biological target: T6, PARP8 (Homo sapiens, UniProt Q8N3A8); experiment: In vitro IC50, immunoprecipitated GFP-PARP8 auto-MARylation
T6 construct: expressed in transfected cells; host or cells: HEK 293T
T6 sequence (Q8N3A8 1-854): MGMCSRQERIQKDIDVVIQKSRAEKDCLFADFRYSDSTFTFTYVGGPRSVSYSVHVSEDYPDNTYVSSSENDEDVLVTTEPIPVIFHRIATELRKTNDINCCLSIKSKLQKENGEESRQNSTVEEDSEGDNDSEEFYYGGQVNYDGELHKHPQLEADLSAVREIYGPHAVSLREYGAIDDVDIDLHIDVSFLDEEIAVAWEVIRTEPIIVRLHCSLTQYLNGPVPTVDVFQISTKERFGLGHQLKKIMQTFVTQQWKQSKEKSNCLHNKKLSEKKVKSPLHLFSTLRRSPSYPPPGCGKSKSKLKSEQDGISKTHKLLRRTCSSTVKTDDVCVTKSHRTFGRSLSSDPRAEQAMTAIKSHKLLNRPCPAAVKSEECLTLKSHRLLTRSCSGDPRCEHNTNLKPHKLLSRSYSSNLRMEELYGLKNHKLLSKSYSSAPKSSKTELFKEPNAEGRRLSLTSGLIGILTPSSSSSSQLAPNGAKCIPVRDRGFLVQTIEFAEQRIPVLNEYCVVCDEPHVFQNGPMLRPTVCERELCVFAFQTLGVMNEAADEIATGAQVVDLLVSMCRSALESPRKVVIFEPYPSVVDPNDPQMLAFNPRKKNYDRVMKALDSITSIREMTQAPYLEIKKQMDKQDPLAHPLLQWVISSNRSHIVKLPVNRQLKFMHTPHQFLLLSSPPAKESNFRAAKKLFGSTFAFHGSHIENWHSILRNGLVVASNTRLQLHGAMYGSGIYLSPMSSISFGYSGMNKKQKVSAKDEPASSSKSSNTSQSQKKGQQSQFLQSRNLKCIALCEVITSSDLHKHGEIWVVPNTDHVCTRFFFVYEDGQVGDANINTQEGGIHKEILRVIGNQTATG
Description: as §1

T5 sequence (Q2NL67 whole entry): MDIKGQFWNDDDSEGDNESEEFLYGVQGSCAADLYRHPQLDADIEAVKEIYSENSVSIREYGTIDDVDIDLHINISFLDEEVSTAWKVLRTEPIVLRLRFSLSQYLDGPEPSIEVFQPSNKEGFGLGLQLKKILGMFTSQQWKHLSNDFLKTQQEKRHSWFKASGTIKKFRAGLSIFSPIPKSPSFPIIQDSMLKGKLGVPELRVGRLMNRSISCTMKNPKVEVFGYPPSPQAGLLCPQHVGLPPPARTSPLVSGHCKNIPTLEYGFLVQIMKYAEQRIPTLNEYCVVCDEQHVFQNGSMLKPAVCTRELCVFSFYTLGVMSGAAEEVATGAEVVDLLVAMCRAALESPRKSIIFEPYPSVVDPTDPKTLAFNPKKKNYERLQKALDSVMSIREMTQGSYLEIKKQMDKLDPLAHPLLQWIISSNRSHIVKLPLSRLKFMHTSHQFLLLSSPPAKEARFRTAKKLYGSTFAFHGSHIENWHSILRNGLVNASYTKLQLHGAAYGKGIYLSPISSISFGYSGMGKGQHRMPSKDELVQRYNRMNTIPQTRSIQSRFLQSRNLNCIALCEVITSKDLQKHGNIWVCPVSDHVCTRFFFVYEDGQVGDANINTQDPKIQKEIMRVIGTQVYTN

SMILES: CC#Cc1ccc2c(=O)[nH]c(CSc3ccc(C(=O)O)cc3)nc2c1C [ITK6, 4-(((8-methyl-4-oxo-7-(prop-1-yn-1-yl)-3,4-dihydroquinazolin-2-yl)methyl)thio) benzoic acid]
- IC50 (PARP7): 24.6 ± 0.5 µM
- IC50 (PARP10cat): 0.156 ± 0.018 µM
- IC50 (PARP4 Brct-cat): > 30 µM
- IC50 (PARP11): 0.099 ± 0.016 µM
- IC50 (PARP6): > 3 µM
- IC50 (PARP8): > 3 µM

SMILES: CC#Cc1ccc2c(=O)[nH]c(CSc3ncccn3)nc2c1C [ITK7, 8-methyl-7-(prop-1-yn-1-yl)-2-((pyrimidin-2-ylthio)methyl)quinazolin-4(3H)-one]
- IC50 (PARP7): 2.46 ± 0.5 µM
- IC50 (PARP10cat): 9.28 ± 1.57 µM
- IC50 (PARP4 Brct-cat): > 30 µM
- IC50 (PARP11): 0.014 ± 0.003 µM
- IC50 (PARP6): > 3 µM
- IC50 (PARP8): > 3 µM
